Data on 11 molecules can be found in patent US9156830B2, “Heterocyclic compounds” (SHIONOGI & CO., LTD., priority 2011, dated 2015).

Data set [1] can be described thus: Measurement of Body Temperature Increase. The note with it: Crl/SD rats, oral, 1 mg/mL in 0.5% methylcellulose at 10 mL/kg; rectal temperature 0.5, 1 and 2 hrs after administration; difference from vehicle group average. The format is in vivo. As for the experimental part:
Selection of rats (Crl/SD rats, 7 weeks, male) for this study is based on rectal body temperature measured during the morning of the day of dosing. In addition, animals selected for this study are acclimated to both the rectal measurement procedure and to being handled and dosed to minimize spontaneous, stress-induced, increases in body temperature. The study is conducted in the animal care laboratories where the room temperature and humidity are kept. The rats are free to move and food and water during the study. Each rat is numbered with color line on the tail, housed in each cage and permittted the normal range of movement. Immediately before each body temperature is measured, they transferred to a single cage at each measurement. To reduce stress which affected the body temperature, the rats are covered with towels at the measurement. The thermistor probe is then carefully inserted into the rectum of each rat and left in place until the value on the digital display had stabilized.
On the day before dosing, rectal body temperatures are measured at 9:00, 10:00, 11:00, 12:30, 13:30, 14:30 and 15:30 to familiarize the animals with the measurement procedure prior to administration of the test or control treatments. The rats are also dosed by oral gavage without vehicle at 12:30 to acclimate and familiarized the animals with the handling and dosing procedure.
On the day of dosing, only rats whose rectal body temperatures are within the range of 37.0° C. to 37.7° C. are selected for this study. Rectal body temperatures are measured at 9:00, 10:00 and 11:00. Rats whose rectal body temperatures are over 37.9° C. at 10:00, and are outside the range of 37.0° C. to 37.7° C. at 11:00 are excluded from the study. The selected rats are divided to several groups based on their rectal body temperatures at 11:00. Rectal body temperatures of the selected rats are measured again at 12:30, and any rats whose rectal body temperature is 38.0° C. or greater are excluded from the study.
Following the group assignment, test compounds or vehicle is administrated to the rats. Each test compound is dissolved in 0.5% methylcellulose and the final concentration of the compound is adjusted to 1 mg/mL. Test compound is orally administrated in a volume 10 mL/kg once. 10 mL/kg of vehicle (0.5% methylcellulose) is administered to the vehicle group. The rectal body temperatures are measured 0.5, 1 and 2 hrs after the administration. The study is conducted in the animal care laboratories where the room temperature and humidity are kept.
Body temperature increase (ΔTb) is calculated from the difference from an average of the vehicle group at each time point. The body temperature increases (ΔTb) of Compounds I-20, I-25, I-26, I-28, I-29, I-33, I-34, I-36, I-37, I-63 and I-64 were less than 0.3° C.

For data set [2], the target named is T1, Human TRPV1 (Homo sapiens (Human), UniProt Q8NER1). Briefly: pH-Based Assay (Protocol 2), Ca2+ response in TRPV1/CHO cells. It counts as cell-based. The note with it: pH 5.0-5.1 (H2SO4). The method, then: The TRPV1/CHO cell line was generated as described below. The following assay was conducted to determine the concentration of sulfuric acid that would give rise to a pH that induces a […] response optimal to test compounds for their effect on TRPV1. […] For one half of a 96-well plate one agonist solution was used, for the other half the other agonist solution. The agonist solutions were obtained by diluting sulfuric acid (H2SO4, 1 M) with measuring buffer. The concentrations for the two agonist solutions were determined as described above in Section 2 of Protocol 2. The sulfuric acid concentrations between the two agonist solutions differed by 0.5 mM. […] The thereby-obtained solutions were further diluted in measuring buffer (1:100) as 10× stock serial dilutions with a DMSO concentration of 1%. 10 μL of a 10× stock was added into each well at step 3.3.(4) of Protocol 2. Thus, the final concentrations of antagonists ranged from 1000-0.977 nM containing 0.1% DMSO (FIG. 3B). […] (3) The cells were washed twice with 150 μL of measuring buffer (mentioned in 2.2.(3) of Protocol 2, no probenecid). The wells were subsequently refilled with 70 μL of measuring buffer. (4) Either 10 μL of measuring buffer or 10 μL of 10× stock serial dilution of test compound (described in 3.2. above) were applied to each well. Usually, only one test compound was tested per 96-well plate. The number of replicates per 96-well plate for a particular antagonist at a particular concentration was 7×2 since two different sulfuric acid concentrations were used per 96-well plate (N=7×2)(FIG. 3). Step (5) was the same as 2.2.(4) above. (6) Fura-2 fluorescent intensity was monitored as described in 2.2.(5) above. […] Steps (7) and (8) were as described in 2.2.(6) and 2.2.(7) above, respectively. […] FIG. 3) were measured one by one using a portable pH meter.

Data set [3] has as its target T1, Human TRPV1. Briefly: Capsaicin-Based Assay (Protocol 2), TRPV1/CHO cells. The format is cell-based. As to conditions: capsaicin 100 nM final, Fluo-4, read-out: TRPV1 IC50 Potency Capsaicin-Based Assay IC50. The method, then:
The TRPV1/CHO cell line was generated as described below. […] Subsequently, the cells were loaded by incubation in 0.1 mL of wash buffer containing Fluo-4 at 3 μM final concentration. After 1 hour, the cells were washed twice with 0.2 mL wash buffer and resuspended in 0.1 mL wash buffer. The plates were then transferred to a Fluorescence Imaging Plate Reader (Molecular Devices). Fluorescence intensity was monitored for 15 seconds to establish a baseline. […] The final concentration of the compound was adjusted to range from 100 μM to 1.5625 μM. […] Data were collected over the entire time course and analyzed using Excel and the curve-fitting formula GraphPad Prism.

A value given as a limit tells only on which side of the number the result lay.

As usually defined, the IC50 is the concentration that inhibits the measured activity by half.

T1 sequence (Q8NER1 whole entry): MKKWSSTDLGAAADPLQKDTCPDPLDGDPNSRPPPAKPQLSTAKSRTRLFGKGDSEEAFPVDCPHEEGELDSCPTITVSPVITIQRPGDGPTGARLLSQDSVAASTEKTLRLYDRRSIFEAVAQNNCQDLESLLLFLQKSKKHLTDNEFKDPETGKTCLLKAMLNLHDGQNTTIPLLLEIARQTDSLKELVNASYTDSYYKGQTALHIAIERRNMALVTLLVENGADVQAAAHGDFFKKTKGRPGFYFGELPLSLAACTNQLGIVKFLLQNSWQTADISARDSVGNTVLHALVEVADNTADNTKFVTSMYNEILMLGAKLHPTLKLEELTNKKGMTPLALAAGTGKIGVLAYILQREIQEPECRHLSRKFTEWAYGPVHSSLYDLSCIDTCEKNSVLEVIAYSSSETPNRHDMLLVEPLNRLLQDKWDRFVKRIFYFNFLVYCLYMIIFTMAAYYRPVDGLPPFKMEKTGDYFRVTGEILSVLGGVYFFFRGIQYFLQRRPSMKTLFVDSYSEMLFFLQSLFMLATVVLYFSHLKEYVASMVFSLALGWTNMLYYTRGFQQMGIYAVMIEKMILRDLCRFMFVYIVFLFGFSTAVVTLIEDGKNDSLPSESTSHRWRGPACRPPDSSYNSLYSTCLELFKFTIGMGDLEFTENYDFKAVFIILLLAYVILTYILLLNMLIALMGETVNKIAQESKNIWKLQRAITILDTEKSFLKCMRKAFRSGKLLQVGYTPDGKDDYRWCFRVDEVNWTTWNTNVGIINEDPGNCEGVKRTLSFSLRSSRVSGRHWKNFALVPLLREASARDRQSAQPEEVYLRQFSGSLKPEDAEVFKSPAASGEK

As for `O=C(Nc1ccc(C(F)(F)F)c(Cl)c1)N1CC=C(c2ncc(-c3ocnc3CO)cc2Cl)CC1` [Compound I-28, N-(3-chloro-4-(trifluoromethyl)phenyl)-4-(3-chloro-5-(4-(hydroxymethyl)oxazol-5-yl)pyridin-2-yl)-5,6-dihydropyridine-1(2H)-carboxamide], in data set [1], the “Body temperature increase (ΔTb)” value was “less than 0.3 °C”.

`O=C(Nc1ccc(C(F)(F)F)c(Cl)c1)N1CC=C(c2ncc(-c3nc(CO)no3)cc2Cl)CC1` [Compound I-36, N-(3-chloro-4-(trifluoromethyl)phenyl)-4-(3-chloro-5-(3-(hydroxymethyl)-1,2,4-oxadiazol-5-yl)pyridin-2-yl)-5,6-dihydropyridine-1(2H)-carboxamide]: the “Body temperature increase (ΔTb)” value in data set [1] was “less than 0.3 °C”. On Human TRPV1 [2] (Fura-2, read-out: IC50 value by the pH-Based Assay), the IC50 is at most 100 nM.

On to `Cc1cc(NC(=O)N2CC=C(c3ncc(-c4nc(CO)no4)cc3F)CC2)ccc1C(F)(F)F` [Compound I-64, 4-(3-fluoro-5-(3-(hydroxymethyl)-1,2,4-oxadiazol-5-yl)pyridin-2-yl)-N-(3-methyl-4-(trifluoromethyl)phenyl)-5,6-dihydropyridine-1(2H)-carboxamide], for which the “Body temperature increase (ΔTb)” value in data set [1] was “less than 0.3 °C”.

In the case of `O=C(Nc1ccc(C(F)(F)F)cn1)N1CC=C(c2ncc(-c3noc(CO)n3)cc2Cl)CC1` [Compound I-26, 4-(3-chloro-5-(5-(hydroxymethyl)-1,2,4-oxadiazol-3-yl)pyridin-2-yl)-N-(5-(trifluoromethyl)pyridin-2-yl)-5,6-dihydropyridine-1(2H)-carboxamide], the “Body temperature increase (ΔTb)” value in data set [1] is “less than 0.3 °C”.

In the case of `O=C(Nc1ccc(C(F)(F)F)cn1)N1CC=C(c2ncc(-c3nc(CO)no3)cc2Cl)CC1` [Compound I-37, 4-(3-chloro-5-(3-(hydroxymethyl)-1,2,4-oxadiazol-5-yl)pyridin-2-yl)-N-(5-(trifluoromethyl)pyridin-2-yl)-5,6-dihydropyridine-1(2H)-carboxamide], the “Body temperature increase (ΔTb)” value in data set [1] is “less than 0.3 °C”.

In the case of `O=C(Nc1ccc(C(F)(F)F)cn1)N1CC=C(c2ncc(-c3nc(CO)no3)cc2F)CC1` [Compound I-63, 4-(3-fluoro-5-(3-(hydroxymethyl)-1,2,4-oxadiazol-5-yl)pyridin-2-yl)-N-(5-(trifluoromethyl)pyridin-2-yl)-5,6-dihydropyridine-1(2H)-carboxamide], in data set [1], the “Body temperature increase (ΔTb)” value was “less than 0.3 °C”.

Regarding `O=C(Nc1ccc(C(F)(F)F)cn1)N1CC=C(c2ncc(-c3cc(CO)on3)cc2Cl)CC1` [Compound I-33, 4-(3-chloro-5-(5-(hydroxymethyl)isoxazol-3-yl)pyridin-2-yl)-N-(5-(trifluoromethyl)pyridin-2-yl)-5,6-dihydropyridine-1(2H)-carboxamide], the “Body temperature increase (ΔTb)” value in data set [1] was “less than 0.3 °C”.

For `O=C(Nc1ccc(C(F)(F)F)c(Cl)c1)N1CC=C(c2ncc(-c3nnc([C@H](O)CO)o3)cc2Cl)CC1` [Compound I-20, (R) —N-(3-chloro-4-(trifluoromethyl)phenyl)-4-(3-chloro-5-(5-(1,2-dihydroxyethyl)-1,3,4-oxadiazol-2-yl)pyridin-2-yl)-5,6-dihydropyridine-1(2H)-carboxamide], the IC50 at Human TRPV1 [3] turned out to be 147 nM. Besides, the “Body temperature increase (ΔTb)” value in data set [1] was “less than 0.3 °C”.

Consider `O=C(Nc1nc2ccc(F)cc2s1)N1CC=C(c2ncc(-c3cc(CO)on3)cc2Cl)CC1` [Compound I-34, 4-(3-chloro-5-(5-(hydroxymethyl)isoxazol-3-yl)pyridin-2-yl)-N-(6-fluorobenzo[d]thiazol-2-yl)-5,6-dihydropyridine-1(2H)-carboxamide], for which the “Body temperature increase (ΔTb)” value in data set [1] was “less than 0.3 °C”. The IC50 on Human TRPV1 [2] (Fura-2, read-out: TRPV1 IC50 Potency pH-Based Assay IC50) came to 33.6 nM.

For the molecule `O=C(Nc1ccc(C(F)(F)F)c(Cl)c1)N1CC=C(c2ncc(-c3noc(CO)n3)cc2Cl)CC1` [Compound I-25, N-(3-chloro-4-(trifluoromethyl)phenyl)-4-(3-chloro-5-(5-(hydroxymethyl)-1,2,4-oxadiazol-3-yl)pyridin-2-yl)-5,6-dihydropyridine-1(2H)-carboxamide], the “Body temperature increase (ΔTb)” value in data set [1] is “less than 0.3 °C”.

As for `O=C(Nc1ccc(C(F)(F)F)c(Cl)c1)N1CC=C(c2ncc(-c3cc(CO)on3)cc2Cl)CC1` [Compound I-29, N-(3-chloro-4-(trifluoromethyl)phenyl)-4-(3-chloro-5-(5-(hydroxymethyl)isoxazol-3-yl)pyridin-2-yl)-5,6-dihydropyridine-1(2H)-carboxamide], in data set [1], the “Body temperature increase (ΔTb)” value is “less than 0.3 °C”.
